# Measured values: the supplement of paper PMC10307832
# Columns and labels:
# Experiment in all cases: relative viability (nuclei count vs DMSO), 5 days (fraction); higher = more cells survive
# [1] = compound: C1=CC(=CC=C1C2=CC(=C(S2)NC(=O)N)C(=O)N)F [TPCA-1] + Cc1nc(Nc2ncc(C(=O)Nc3c(C)cccc3Cl)s2)cc(N2CCN(CCO)CC2)n1 [Dasatinib] (partner 0.075 µM)
# Outline: (§1)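 Lung cancer cell lines were seeded in 1536-well plates and dosed by pin tool the next day, with either a single drug or a fixed anchor-drug dose combined with five library-drug doses (not always all listed) spaced in √10 steps. Five days later, one step fixed the cells and stained their nuclei (final 0.05% Triton X-100, 1% formaldehyde, 1 ug/ml Hoechst), and nuclei were counted on 4× images. Relative viability is the nuclei count in treated wells divided by the count in vehicle wells, and each value is the median of duplicate plates.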
# [2] = compound: C1=CC(=CC=C1C2=CC(=C(S2)NC(=O)N)C(=O)N)F [TPCA-1] + CC(=O)Nc1cccc(-n2c(=O)n(C3CC3)c(=O)c3c(Nc4ccc(I)cc4F)n(C)c(=O)c(C)c32)c1 [Trametinib] (partner 0.02 µM)
# Outline: as §1
# [3] = compound: C1=CC(=CC=C1C2=CC(=C(S2)NC(=O)N)C(=O)N)F [TPCA-1] + CS(=O)(=O)CCNCc1ccc(-c2ccc3ncnc(Nc4ccc(OCc5cccc(F)c5)c(Cl)c4)c3c2)o1 [Lapatinib] (partner 2 µM)
# Outline: as §1
# [4] = compound: C1/C(=C\C2=CC=CS2)/C(=O)/C(=C/C3=CC=CS3)/C1 + CS(=O)(=O)CCNCc1ccc(-c2ccc3ncnc(Nc4ccc(OCc5cccc(F)c5)c(Cl)c4)c3c2)o1 [Lapatinib] (partner 2 µM)
# Outline: as §1
Cell Line,relative viability ([1]; first compound 0.04 µM),relative viability ([1]; first compound 0.1265 µM),relative viability ([1]; first compound 0.4 µM),relative viability ([1]; first compound 1.265 µM),relative viability ([1]; first compound 4 µM),relative viability ([2]; first compound 0.04 µM),relative viability ([2]; first compound 0.1265 µM),relative viability ([2]; first compound 0.4 µM),relative viability ([2]; first compound 1.265 µM),relative viability ([2]; first compound 4 µM),relative viability ([3]; first compound 0.04 µM),relative viability ([3]; first compound 0.1265 µM),relative viability ([3]; first compound 0.4 µM),relative viability ([3]; first compound 1.265 µM),relative viability ([3]; first compound 4 µM),relative viability ([4]; first compound 0.2 µM),relative viability ([4]; first compound 0.6325 µM),relative viability ([4]; first compound 2 µM),relative viability ([4]; first compound 6.325 µM),relative viability ([4]; first compound 20 µM)
LCLC-103H,0.518,0.447,0.481,0.397,0.465,0.689,0.671,0.689,0.725,0.684,–,–,–,–,–,–,–,–,–,–
NCI-H1563,0.42,0.453,0.468,0.455,0.452,–,–,–,–,–,1.08,0.943,0.919,0.736,0.795,0.996,0.903,0.97,0.953,0.955
NCI-H522,0.993,0.833,1.11,0.844,0.788,0.872,0.737,0.901,0.766,0.6,–,–,–,–,–,–,–,–,–,–
HCC-44,–,–,–,–,–,1.09,0.983,1.09,0.914,1.02,0.974,0.961,1,0.913,0.904,0.979,1.02,1,0.728,0.975
NCI-H441,0.882,0.559,0.688,0.245,0.274,0.402,0.405,0.422,0.459,0.266,–,–,–,–,–,–,–,–,–,–
NCI-H1299,–,–,–,–,–,–,–,–,–,–,0.962,0.979,0.95,0.963,0.949,1.04,0.951,0.909,0.939,0.995
ChaGo-K-1,0.754,0.594,0.705,0.561,0.218,0.895,0.715,0.876,0.822,0.676,–,–,–,–,–,–,–,–,–,–
NCI-H1648,–,–,–,–,–,0.505,0.473,0.378,0.169,0.582,–,–,–,–,–,–,–,–,–,–
EBC-1,–,–,–,–,–,–,–,–,–,–,0.201,0.233,0.196,0.224,0.248,0.19,0.197,0.237,0.205,0.221
IA-LM,–,–,–,–,–,–,–,–,–,–,0.64,0.804,0.87,0.626,0.896,1.08,0.749,0.779,0.757,0.67
ABC-1,0.485,0.493,0.614,0.495,0.381,–,–,–,–,–,1.19,1.06,1.22,1.21,0.854,1.28,1.09,1.03,0.971,1.27
NCI-H1703,–,–,–,–,–,–,–,–,–,–,1.07,0.902,1.18,0.805,0.988,1.21,1.21,1.18,1.1,1.11
